Reference: US5455230A, “Delta opioid receptor antagonists and their use as analgesic agents” (Aktiebolaget Astra, priority 1993, dated 1995)
Peptide text beside a SMILES is read from it.

Key:
δ opioid receptor = molecular target: T1, δ opioid receptor (Rattus norvegicus, UniProt P33533); assay: δ opioid receptor binding assay, displacement of δ-selective radioligand from rat brain membranes; settings: for Ki^μ /Ki^δ (δ-selectivity): ratio of μ and δ binding constants
T1 construct: from tissue; host or cells: rat brain (without cerebellum) membranes, Sprague-Dawley
From the text: (§1) In the case of κ-ligands guinea pig brain homogenates were used, since the relative proportion of κ-binding sites is higher in guinea pig brain than in rat brain. The experimental procedure being used in our laboratory represents a modified version of the binding assay described by Pastemak et al. (Mol. Pharmacol. 11,340-351, (1975)). Male Sprague-Dawley rats (300-350 g) from the Canadian Breeding Laboratories were decapitated and after removal of the cerebellum the brains were homogenized in 30 volumes of ice-cold standard buffer (50 mM Tris-HCl, pH 7.7). After centrifugation at 30,000×g for 30 min at 4° C. the membranes were reconstituted in the original volume of standard buffer and incubated for 30 min at 37° C. (to release bound endogenous ligands). […] The incubation was terminated by filtration through Whatman GF/B filters under vacuum at 4° C. Following two washings with 5 ml portions of ice-cold standard buffer the filters were transferred to scintillation vials and treated with 1 ml Protosol (New England Nuclear) for 30 min prior to the addition of 0.5 ml acetic acid and 10 ml Aquasol (New England Nuclear). After shaking for 30 min the vials were counted at an efficiency of 40-45%. All experiments were performed in duplicates and repeated at least three times. […] Values of half-maximal inhibition (IC50) of specific binding were obtained graphically from semilogarithmic plots.

μ opioid receptor = molecular target: T2, μ opioid receptor (Rattus norvegicus, UniProt P33535); assay: μ opioid receptor binding assay, displacement of [3H]DAMGO from rat brain membranes
T2 construct: from tissue; host or cells: rat brain (without cerebellum) membranes, Sprague-Dawley
From the text: as §1

μ opioid receptors [1] = molecular target: T3, μ opioid receptors (Cavia porcellus, UniProt P97266); assay: GPI assay: inhibition of electrically evoked contractions of the guinea pig ileum; settings: read-out: IC50 (μ agonist potency) in the GPI assay
From the text: In the GPI assay the opioid effect is primarily mediated by μ opioid receptors, whereas in the MVD assay the inhibition of the contractions is mostly due to interaction with δ opioid receptors.

δ opioid receptors = molecular target: T4, δ opioid receptors (Mus musculus, UniProt P32300); assay: MVD assay: antagonism of δ agonist inhibition of electrically evoked contractions of the mouse vas deferens; settings: comparison with the patent's best compounds
T4 construct: electrically evoked contractions of the mouse vas deferens (MVD); from tissue; host or cells: isolated mouse vas deferens
From the text: Biosassys based on inhibition of electrically evoked contractions of the mouse vas deferens (MVD) and of the guinea pig ileum (GPI). In the GPI assay the opioid effect is primarily mediated by μ opioid receptors, whereas in the MVD assay the inhibition of the contractions is mostly due to interaction with δ opioid receptors. Antagonist potencies in these assays are expressed as so-called Ke -values (H. W. Kosterlitz & A. J. Watt, Br. J. Pharmacol. 33, 266-276 (1968)).
The GPI and MVD bioassays were carried out as reported in P. W. Schiller et al Biochem. Biophys. Res. Commun 85, 1332-1338 (1978) and J. DiMaio et al, J. Med. Chem 25 1432-1438 (1982). A log dose-response curve was determind with [Leu^5 ]enkephalin as standard for each ileum and vas preparation, and IC50 values of the compounds being tested were normalized according to A. A Waterfield et al Eur. J. Pharmacod 58, 11-18 (1979). Ke values for the TIPP-related antagonists were determind from the ratio of IC50 values (DR) obtained in the presence and absence of a fixed antagonist concentration (a) (Ke =a/(DR-1) H. W. Kosterlitz & A. J. Watt, Br. J. Pharmacol. 33, 266-276 (1968). These determinations were made with the MVD assay, using three different δ -selective agonists ([Leu^5 ] enkephalin, DPDPE and [D-Ala^2 ]deltorphin I.

μ opioid receptors [2] = molecular target: T3, μ opioid receptors; settings: literature value, Portoghese J. Med. Chem. 34, 1757 (1991); cited from earlier work

T1 sequence (P33533 whole entry): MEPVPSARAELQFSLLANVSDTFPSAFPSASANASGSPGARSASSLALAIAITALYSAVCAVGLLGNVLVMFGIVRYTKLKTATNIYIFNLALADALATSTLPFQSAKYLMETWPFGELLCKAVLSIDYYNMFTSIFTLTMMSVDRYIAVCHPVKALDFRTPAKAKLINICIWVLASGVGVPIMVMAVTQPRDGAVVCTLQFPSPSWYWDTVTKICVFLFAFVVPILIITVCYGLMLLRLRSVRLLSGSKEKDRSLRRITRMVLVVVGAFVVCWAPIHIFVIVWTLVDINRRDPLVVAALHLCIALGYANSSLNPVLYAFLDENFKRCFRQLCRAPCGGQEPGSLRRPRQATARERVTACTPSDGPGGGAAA
T2 sequence (P33535 whole entry): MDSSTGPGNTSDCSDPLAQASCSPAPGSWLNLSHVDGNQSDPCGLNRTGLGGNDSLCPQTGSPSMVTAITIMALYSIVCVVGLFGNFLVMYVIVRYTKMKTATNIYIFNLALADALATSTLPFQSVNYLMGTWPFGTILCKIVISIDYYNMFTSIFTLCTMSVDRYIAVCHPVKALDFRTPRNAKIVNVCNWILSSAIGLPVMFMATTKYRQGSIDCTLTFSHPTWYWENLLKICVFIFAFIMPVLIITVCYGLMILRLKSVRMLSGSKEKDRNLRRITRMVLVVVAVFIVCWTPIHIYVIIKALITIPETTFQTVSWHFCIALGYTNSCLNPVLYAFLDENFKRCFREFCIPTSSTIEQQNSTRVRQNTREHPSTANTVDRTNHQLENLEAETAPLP
T3 sequence (P97266 whole entry, looked up): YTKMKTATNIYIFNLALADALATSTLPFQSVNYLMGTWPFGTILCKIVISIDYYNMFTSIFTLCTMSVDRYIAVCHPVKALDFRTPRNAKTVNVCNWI
T4 sequence (P32300 whole entry): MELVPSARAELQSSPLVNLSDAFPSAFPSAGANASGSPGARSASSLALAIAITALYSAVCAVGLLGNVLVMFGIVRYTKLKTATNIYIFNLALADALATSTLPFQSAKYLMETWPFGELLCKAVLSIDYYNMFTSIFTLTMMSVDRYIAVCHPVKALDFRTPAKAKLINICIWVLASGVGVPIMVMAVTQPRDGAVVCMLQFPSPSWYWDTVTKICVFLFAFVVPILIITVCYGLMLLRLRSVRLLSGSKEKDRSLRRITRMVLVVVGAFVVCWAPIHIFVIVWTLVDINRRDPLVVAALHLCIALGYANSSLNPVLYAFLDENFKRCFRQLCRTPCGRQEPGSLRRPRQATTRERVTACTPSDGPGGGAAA

NC(=O)[C@H](Cc1ccccc1)NC(=O)[C@@H]1Cc2ccccc2CN1C(=O)[C@@H](N)Cc1ccc(O)cc1 [H--Tyr--Tic--Phe--NH2] (HELM PEPTIDE1{Y.[Tic].F.[am]}$$$$V2.0)
Ki (δ opioid receptor): 12 ± 1.3 nM
Ki^μ /Ki^δ (δ-selectivity) (δ opioid receptor): 52.0
Ki (μ opioid receptor): 624 ± 79 nM

N[C@@H](Cc1ccc(O)cc1)C(=O)N1Cc2ccccc2C[C@H]1C(=O)N[C@@H](Cc1ccccc1)C(=O)O [H--Tyr--Tic--Phe--OH] (HELM PEPTIDE1{Y.[Tic].F}$$$$V2.0)
Ki^μ /Ki^δ (δ-selectivity) (δ opioid receptor): 141

N[C@@H](Cc1ccc(O)cc1)C(=O)N1Cc2ccccc2C[C@H]1C(=O)N[C@@H](Cc1ccccc1)C(=O)N[C@@H](Cc1ccc([N+](=O)[O-])cc1)C(=O)O [H--Tyr--Tic--Phe--Phe(p-NO2)--OH] (HELM PEPTIDE1{Y.[Tic].F.[O=C(O)[C@H](Cc1ccc([N+](=O)[O-])cc1)N[*:1]]}$$$$V2.0)
Ki (δ opioid receptor): 0.703 ± 0.099 nM
Ki^μ /Ki^δ (δ-selectivity) (δ opioid receptor): 4110
Ki (μ opioid receptor): 2890 ± 660 nM

NC(=O)[C@H](Cc1ccccc1)NC(=O)[C@H](Cc1ccccc1)NC(=O)[C@@H]1Cc2ccccc2CN1C(=O)[C@@H](N)Cc1ccc(O)cc1 [H--Tyr--Tic--Phe--Phe--NH2] (HELM PEPTIDE1{Y.[Tic].F.F.[am]}$$$$V2.0)
IC50 (μ opioid receptors [1]): 1700 ± 220 nM
Ki^μ /Ki^δ (δ-selectivity) (δ opioid receptor): 26.3

NC(=O)[C@H](Cc1c[nH]c2ccccc12)NC(=O)[C@H](Cc1ccccc1)NC(=O)[C@@H]1Cc2ccccc2CN1C(=O)[C@@H](N)Cc1ccc(O)cc1 [H--Tyr--Tic--Phe--Trp--NH2] (HELM PEPTIDE1{Y.[Tic].F.W.[am]}$$$$V2.0)
Ki (δ opioid receptor): 1.21 ± 0.19 nM
Ki^μ /Ki^δ (δ-selectivity) (δ opioid receptor): 258
Ki (μ opioid receptor): 312 ± 75 nM

N[C@@H](Cc1ccc(O)cc1)C(=O)N1Cc2ccccc2C[C@H]1C(=O)N[C@@H](Cc1c[nH]c2ccccc12)C(=O)N[C@@H](Cc1ccc([N+](=O)[O-])cc1)C(=O)O [H--Tyr--Tic--Trp--Phe(p-NO2)--OH] (HELM PEPTIDE1{Y.[Tic].W.[O=C(O)[C@H](Cc1ccc([N+](=O)[O-])cc1)N[*:1]]}$$$$V2.0)
Ki (δ opioid receptor): 0.33 ± 0.004 nM
Ki^μ /Ki^δ (δ-selectivity) (δ opioid receptor): 4610
Ki (μ opioid receptor): 1520 ± 42 nM

NC(=O)[C@H](Cc1ccccc1)NC(=O)[C@H](Cc1c[nH]c2ccccc12)NC(=O)[C@@H]1Cc2ccccc2CN1C(=O)[C@@H](N)Cc1ccc(O)cc1 [H--Tyr--Tic--Trp--Phe--NH2] (HELM PEPTIDE1{Y.[Tic].W.F.[am]}$$$$V2.0)
Ki (δ opioid receptor): 0.248 ± 0.009 nM
Ki^μ /Ki^δ (δ-selectivity) (δ opioid receptor): 709
Ki (μ opioid receptor): 176 ± 21 nM

N[C@@H](Cc1ccc(O)cc1)C(=O)N1Cc2ccccc2C[C@H]1C(=O)N[C@@H](Cc1c[nH]c2ccccc12)C(=O)N[C@@H](Cc1ccccc1)C(=O)O [H--Tyr--Tic--Trp--Phe--OH] (HELM PEPTIDE1{Y.[Tic].W.F}$$$$V2.0)
Ki (δ opioid receptor): 0.301 ± 0.042 nM
Ki^μ /Ki^δ (δ-selectivity) (δ opioid receptor): 5950
Ki (μ opioid receptor): 1790 ± 380 nM

C=CCN(CC=C)[C@@H](Cc1ccc(O)cc1)C(=O)NC(C)(C)C(=O)NC(C)(C)C(=O)N[C@@H](Cc1ccccc1)C(=O)N[C@@H](CC(C)C)C(=O)O [ICI 174864, N,N--diallyl--Tyr--Aib--Aib--Phe--Leu--OH, reference compound] (HELM PEPTIDE1{[C=CCN(CC=C)[C@@H](Cc1ccc(O)cc1)C(=O)[*:2]].[Aib].[Aib].F.L}$$$$V2.0)
δ-selectivity compared with the most potent and selective δ antagonists of the patent (δ opioid receptor; comparison with the patent's best compounds): 40 times less
antagonist potency in the MVD assay compared with the most potent and selective δ antagonists of the patent (δ opioid receptors): 20 times less potent

Oc1ccc2c3c1O[C@H]1c4[nH]c5ccccc5c4C[C@@]4(O)[C@@H](C2)N(CC2CC2)CC[C@]314 [Naltrindole, naltrindole, reference compound]
Ki (δ opioid receptor): 0.687 ± 0.1 nM
Ke (antagonist properties) in the guinea pig ileum (GPI) assay (μ opioid receptors [2]): 29 nM
